Assay results as given in patent US12220400B2, “Amino acid compositions and methods for treating cystic fibrosis” (UNIVERSITY OF FLORIDA RESEARCH FOUNDATION, INCORPORATED, priority 2018, dated 2025).

System: HBEC-F508del
Test: Transepithelial short-circuit anion current in HBEC-F508del, Example 3
Type: cell-based, human
Experimental: Methods: Transepithelial short-circuit current and ^36Cl net flux (Jnet) were measured in differentiated HBEC-F508del bathed in vehicle (no AA), AA test formulation (CF5AA-3) or AA negative control (NC; CF4AA-3) in Ussing chambers. Cells were treated with C18 (VX809-analogue), VX661 or DMSO for 24 hours. After blocking ENaC with benzamil, chloride secretion was stimulated using GLPG1837 (VX770-analogue) with or without forskolin. CFTRinh-172, CaCCinh-A01 or bumetanide were added to distinguish CFTR-, TMEM16A- and NKCC1-sensitive chloride currents, respectively. Western blot was performed on HBEC-F508del membrane fractions to determine apical CFTR expression.

## CC(C)(CO)c1cc2cc(NC(=O)C3(c4ccc5c(c4)OC(F)(F)O5)CC3)c(F)cc2n1C[C@@H](O)CO [VX661, tezacaftor]
Corrector pretreatment 24 hours, cells bathed in vehicle (no AA)
  basal anion current: 1.5±0.2 μA
Forskolin and GLPG1837
  peak anion current after stimulation with forskolin and GLPG1837: 7.9±0.7 μA
